In general, MIC refers to the lowest concentration found to suppress growth. The low end stands for inhibition by little substance, the high end for a need for much substance.

≈ marks a conversion by molar mass, not a printed value. Calls of active or inactive are those of the source. The rule behind the calls is not given here.

Holding throughout (format): functional
For assay [1], the system named is Klebsiella pneumoniae. Put plainly: Antibacterial activity against Klebsiella pneumoniae MTCC 432 after 16 hr by cup-plate method. The conditions noted are these: MTCC 432, 16 h.
The test system of assay [2] is Klebsiella pneumoniae. Put plainly: Antibacterial activity against Klebsiella pneumoniae MTCC 432 at 100 ug/ml after 16 to 18 hr by cup-plate method. Conditions: read-out: IZ.
Assay [3] has as its system Staphylococcus aureus. Put plainly: Antibacterial activity against Staphylococcus aureus MTCC 096 after 16 hr by cup-plate method. Conditions: MTCC 096, 16 h.
The test system of assay [4] is Aspergillus fumigatus. The experiment in a line: Antifungal activity against Aspergillus fumigatus MTCC 343 at 100 ug/ml after 28 to 30 hr by cup-plate method. Conditions: read-out: IZ.
Assay [5] relates to Aspergillus niger. The experiment in a line: Antifungal activity against Aspergillus niger MTCC 282 at 100 ug/ml after 28 to 30 hr by cup-plate method. The conditions noted are these: for zone of inhibition at 100 µg/mL: read-out: IZ.
The test system of assay [6] is Staphylococcus aureus. Put plainly: Antibacterial activity against Staphylococcus aureus MTCC 096 at 100 ug/ml after 16 to 18 hr by cup-plate method. The conditions noted are these: read-out: IZ.
Assay [7] relates to Aspergillus flavus. Put plainly: Antifungal activity against Aspergillus flavus MTCC 277 at 100 ug/ml after 28 to 30 hr by cup-plate method. Conditions: read-out: IZ.
Assay [8] deals with Bacillus subtilis. Put plainly: Antibacterial activity against Bacillus subtilis MTCC 441 after 16 hr by cup-plate method. The conditions noted are these: MTCC 441, 16 h.
The subject of assay [9] is Candida albicans. The experiment in a line: Antifungal activity against Candida albicans MTCC 227 after 28 to 30 hr by cup-plate method.
Assay [10] has as its system Pseudomonas aeruginosa. The experiment in a line: Antibacterial activity against Pseudomonas aeruginosa MTCC 424 after 16 hr by cup-plate method. The conditions noted are these: MTCC 424, 16 h.
Assay [11] has as its system Salmonella typhi. Put plainly: Antibacterial activity against Salmonella enterica subsp. enterica serovar Typhi MTCC 733 at 100 ug/ml after 16 to 18 hr by cup-plate method. Conditions: read-out: IZ.
For assay [12], the system named is Aspergillus niger. The experiment in a line: Antifungal activity against Aspergillus niger MTCC 282 after 28 to 30 hr by cup-plate method.
Assay [13] concerns Bacillus subtilis. Put plainly: Antibacterial activity against Bacillus subtilis MTCC 441 at 100 ug/ml after 16 to 18 hr by cup-plate method. Conditions: read-out: IZ.
Assay [14] has as its system Candida albicans. The experiment in a line: Antifungal activity against Candida albicans MTCC 227 at 100 ug/ml after 28 to 30 hr by cup-plate method. Conditions: read-out: IZ.
The subject of assay [15] is Staphylococcus epidermidis. Put plainly: Antibacterial activity against Staphylococcus epidermidis MTCC 435 at 100 ug/ml after 16 to 18 hr by cup-plate method. Conditions: read-out: IZ.
Assay [16] relates to Escherichia coli. Put plainly: Antibacterial activity against Escherichia coli MTCC 443 after 16 hr by cup-plate method. The conditions noted are these: MTCC 443, 16 h.
For assay [17], the system named is Aspergillus fumigatus. Put plainly: Antifungal activity against Aspergillus fumigatus MTCC 343 after 28 to 30 hr by cup-plate method.
Assay [18] deals with Pseudomonas aeruginosa. Put plainly: Antibacterial activity against Pseudomonas aeruginosa MTCC 424 at 100 ug/ml after 16 to 18 hr by cup-plate method. The conditions noted are these: read-out: IZ.
Assay [19] relates to Escherichia coli. The experiment in a line: Antibacterial activity against Escherichia coli MTCC 443 at 100 ug/ml after 16 to 18 hr by cup-plate method. The conditions noted are these: read-out: IZ.
The subject of assay [20] is Staphylococcus epidermidis. The experiment in a line: Antibacterial activity against Staphylococcus epidermidis MTCC 435 after 16 hr by cup-plate method. Conditions: MTCC 435, 16 h.
The subject of assay [21] is Aspergillus flavus. Put plainly: Antifungal activity against Aspergillus flavus MTCC 277 after 28 to 30 hr by cup-plate method.
In assay [22] the test system is Salmonella typhi. Put plainly: Antibacterial activity against Salmonella enterica subsp. enterica serovar Typhi MTCC 733 after 16 hr by cup-plate method. The conditions noted are these: MTCC 733, 16 h.

Turning to `CC(=O)Nc1ccc(Br)cc1Sc1ncccc1[N+](=O)[O-]`, the MIC against Klebsiella pneumoniae [1] worked out at 6.25 µg/mL (≈ 17 µM); with Staphylococcus aureus [3], 25 µg/mL (≈ 67.9 µM); with Bacillus subtilis [8], 25 µg/mL (≈ 67.9 µM); with Candida albicans [9] it was 6.25 µg/mL (≈ 17 µM); against Pseudomonas aeruginosa [10], 6.25 µg/mL (≈ 17 µM); against Aspergillus niger [12] it was 6.25 µg/mL (≈ 17 µM). For the same molecule, the MIC in the assay with Escherichia coli [16] was over 50 µg/mL; in the assay with Aspergillus fumigatus [17], 6.25 µg/mL (≈ 17 µM); in assay [20], 6.25 µg/mL (≈ 17 µM); in the assay with Aspergillus flavus [21], 12.5 µg/mL (≈ 33.9 µM). Also, the zone of inhibition at 100 µg/mL in the assay with Klebsiella pneumoniae [2] was 13 mm; in the assay with Aspergillus fumigatus [4], 14 mm; in the assay on Aspergillus niger [5], 16 mm; with Staphylococcus aureus [6], 12 mm; with Aspergillus flavus [7], 12 mm; in the assay on Salmonella typhi [11] it was 11 mm. In addition, the zone of inhibition at 100 µg/mL with Bacillus subtilis [13] came to 12 mm; in the assay on Candida albicans [14], 13 mm; in assay [15], 13 mm; in the assay on Pseudomonas aeruginosa [18], 14 mm; with Escherichia coli [19] it was 11 mm.
Take `O=C(O)c1cn(C2CC2)c2cc(N3CCNCC3)c(F)cc2c1=O` [CIPROFLOXACIN]: the MIC against Salmonella typhi [22] stood at 6.25 mM (≈ 2070 µg/mL); with Klebsiella pneumoniae [1], 6.25 µg/mL (≈ 18.9 µM); against Staphylococcus aureus [3] it was 6.25 µg/mL (≈ 18.9 µM); with Bacillus subtilis [8], 6.25 µg/mL (≈ 18.9 µM); in the assay with Pseudomonas aeruginosa [10], 6.25 µg/mL (≈ 18.9 µM); in the assay with Escherichia coli [16], 6.25 µg/mL (≈ 18.9 µM). Further, 6.25 µg/mL (≈ 18.9 µM) was the least that counted as inhibitory in assay [20] (MIC). Further, the zone of inhibition at 100 µg/mL in the assay with Klebsiella pneumoniae [2] came out at 17 mm; in the assay with Staphylococcus aureus [6], 19 mm; in the assay with Salmonella typhi [11], 19 mm; with Bacillus subtilis [13] it was 18 mm; in assay [15] it was 16 mm; in the assay on Pseudomonas aeruginosa [18] it was 18 mm.
With `Clc1ccc2c(c1)Sc1cccnc1N2CCCCCCN1c2ccc(Cl)cc2Sc2cccnc21`, the minimum inhibitory concentration (MIC) in the assay with Klebsiella pneumoniae [1] is 50 µg/mL (≈ 90.7 µM); in the assay with Staphylococcus aureus [3], 25 µg/mL (≈ 45.3 µM); against Bacillus subtilis [8] it was 25 µg/mL (≈ 45.3 µM); with Candida albicans [9], 12.5 µg/mL (≈ 22.7 µM); in the assay on Pseudomonas aeruginosa [10], 25 µg/mL (≈ 45.3 µM); in the assay with Aspergillus niger [12], over 50 µg/mL. Also, the minimal inhibitory concentration (MIC) in the assay on Escherichia coli [16] was 50 µg/mL (≈ 90.7 µM); against Aspergillus fumigatus [17], 12.5 µg/mL (≈ 22.7 µM); in assay [20], over 50 µg/mL; against Aspergillus flavus [21] it was over 50 µg/mL. Further, the zone of inhibition at 100 µg/mL was 11 mm in the assay with Klebsiella pneumoniae [2]; 12 mm with Aspergillus fumigatus [4]; 12 mm in the assay with Staphylococcus aureus [6]; 10 mm with Aspergillus flavus [7]; 12 mm in the assay with Salmonella typhi [11]; 12 mm in the assay on Bacillus subtilis [13]. The zone of inhibition at 100 µg/mL in the assay with Candida albicans [14] came to 12 mm; in assay [15], 10 mm; in the assay on Pseudomonas aeruginosa [18] it was 12 mm; in the assay with Escherichia coli [19], 11 mm. For the same molecule, the “inhibition zone (IZ)” value in the assay with Aspergillus niger [5] was “inactive”.
Regarding `Fc1ccc2c(c1)Sc1cccnc1N2CCCCN1c2ccc(F)cc2Sc2cccnc21`, the minimum inhibitory concentration (MIC) is 50 µg/mL (≈ 102 µM) against Klebsiella pneumoniae [1]; 25 µg/mL (≈ 51 µM) against Staphylococcus aureus [3]; 12.5 µg/mL (≈ 25.5 µM) against Bacillus subtilis [8]; over 50 µg/mL with Candida albicans [9]; over 50 µg/mL in the assay on Pseudomonas aeruginosa [10]; 50 µg/mL (≈ 102 µM) with Aspergillus niger [12]. Besides, the minimum inhibitory concentration (MIC) was 25 µg/mL (≈ 51 µM) against Escherichia coli [16], over 50 µg/mL with Aspergillus fumigatus [17], 12.5 µg/mL (≈ 25.5 µM) in assay [20] and 25 µg/mL (≈ 51 µM) with Aspergillus flavus [21]. Also, the zone of inhibition at 100 µg/mL in the assay with Klebsiella pneumoniae [2] amounted to 11 mm; in the assay with Aspergillus fumigatus [4], 10 mm; in the assay on Aspergillus niger [5], 11 mm; with Staphylococcus aureus [6], 11 mm; in the assay on Aspergillus flavus [7], 12 mm; with Salmonella typhi [11], 12 mm. Further, the zone of inhibition at 100 µg/mL in the assay on Bacillus subtilis [13] came out at 12 mm; in the assay with Candida albicans [14], 10 mm; in assay [15], 12 mm; in the assay on Pseudomonas aeruginosa [18] it was 10 mm; in the assay with Escherichia coli [19], 11 mm.
For `Clc1ccc2c(c1)Sc1cccnc1N2CCCCN1c2ccc(Cl)cc2Sc2cccnc21`, the MIC is over 50 µg/mL against Klebsiella pneumoniae [1]; 25 µg/mL (≈ 47.8 µM) against Staphylococcus aureus [3]; 50 µg/mL (≈ 95.5 µM) in the assay with Bacillus subtilis [8]; 25 µg/mL (≈ 47.8 µM) in the assay with Candida albicans [9]; 50 µg/mL (≈ 95.5 µM) in the assay on Pseudomonas aeruginosa [10]; over 50 µg/mL with Aspergillus niger [12]. The MIC in the assay with Escherichia coli [16] stood at 12.5 µg/mL (≈ 23.9 µM); in the assay with Aspergillus fumigatus [17] it was 50 µg/mL (≈ 95.5 µM); in assay [20], 6.25 µg/mL (≈ 11.9 µM); against Aspergillus flavus [21], 12.5 µg/mL (≈ 23.9 µM). The zone of inhibition at 100 µg/mL in the assay on Klebsiella pneumoniae [2] is 11 mm; with Aspergillus fumigatus [4] it was 11 mm; with Aspergillus niger [5], 10 mm; in the assay on Staphylococcus aureus [6], 12 mm; in the assay with Aspergillus flavus [7], 12 mm; with Salmonella typhi [11], 12 mm. In addition, the zone of inhibition at 100 µg/mL was found to be 11 mm in the assay on Bacillus subtilis [13]; 11 mm in the assay on Candida albicans [14]; 12 mm in [15]; 11 mm in the assay with Pseudomonas aeruginosa [18]; 12 mm in the assay with Escherichia coli [19].
As to `Fc1ccc2c(c1)Sc1cccnc1N2CCCCCCN1c2ccc(F)cc2Sc2cccnc21`, the MIC with Klebsiella pneumoniae [1] was 50 µg/mL (≈ 96.4 µM); with Staphylococcus aureus [3], 25 µg/mL (≈ 48.2 µM); in the assay on Bacillus subtilis [8], 25 µg/mL (≈ 48.2 µM); with Candida albicans [9], 6.25 µg/mL (≈ 12.1 µM); against Pseudomonas aeruginosa [10], 6.25 µg/mL (≈ 12.1 µM); in the assay on Aspergillus niger [12] it was 50 µg/mL (≈ 96.4 µM). In addition, the MIC against Escherichia coli [16] amounted to 12.5 µg/mL (≈ 24.1 µM); against Aspergillus fumigatus [17], 25 µg/mL (≈ 48.2 µM); in assay [20], 12.5 µg/mL (≈ 24.1 µM); against Aspergillus flavus [21], 12.5 µg/mL (≈ 24.1 µM). The zone of inhibition at 100 µg/mL with Klebsiella pneumoniae [2] came to 11 mm; in the assay on Aspergillus fumigatus [4], 11 mm; with Aspergillus niger [5] it was 10 mm; in the assay with Staphylococcus aureus [6] it was 12 mm; with Aspergillus flavus [7] it was 12 mm; with Salmonella typhi [11], 12 mm. Further, the zone of inhibition at 100 µg/mL amounted to 12 mm in the assay with Bacillus subtilis [13]; 13 mm in the assay on Candida albicans [14]; 12 mm in assay [15]; 13 mm in the assay with Pseudomonas aeruginosa [18]; 12 mm in the assay on Escherichia coli [19].
On to `Brc1ccc2c(c1)Sc1cccnc1N2CCCCCCN1c2ccc(Br)cc2Sc2cccnc21`, for which the MIC is 25 µg/mL (≈ 39 µM) against Klebsiella pneumoniae [1]; 25 µg/mL (≈ 39 µM) against Staphylococcus aureus [3]; 12.5 µg/mL (≈ 19.5 µM) against Bacillus subtilis [8]; 25 µg/mL (≈ 39 µM) against Candida albicans [9]; 6.25 µg/mL (≈ 9.76 µM) with Pseudomonas aeruginosa [10]; over 50 µg/mL with Aspergillus niger [12]. Further, the MIC against Escherichia coli [16] was 6.25 µg/mL (≈ 9.76 µM); against Aspergillus fumigatus [17], 25 µg/mL (≈ 39 µM); in assay [20] it was 6.25 µg/mL (≈ 9.76 µM); with Aspergillus flavus [21], 12.5 µg/mL (≈ 19.5 µM). Besides, the zone of inhibition at 100 µg/mL came out at 12 mm in the assay on Klebsiella pneumoniae [2]; 11 mm in the assay on Aspergillus fumigatus [4]; 11 mm in the assay with Aspergillus niger [5]; 12 mm in the assay with Staphylococcus aureus [6]; 12 mm with Aspergillus flavus [7]; 11 mm in the assay with Salmonella typhi [11]. For the same molecule, the zone of inhibition at 100 µg/mL amounted to 13 mm with Bacillus subtilis [13]; 11 mm with Candida albicans [14]; 14 mm in [15]; 13 mm in the assay on Pseudomonas aeruginosa [18]; 12 mm with Escherichia coli [19].
